Ends that are not written are not given here.
Experiments:
SNAP-tagged human GIPR [1] = experiment: Confocal microscopy of co-internalization with FITC agonist, SNAP-GIPR; assay type: cell-based
Description: (§1) Figure 1. Beta cell GLP-1R vs GIPR trafficking patterns. […] (B) Rates of GLP-1R vs GIPR internalization (k values) derived from (A) by one-phase association (with Y0 = 0) of baseline-deleted DERET data; n = 5. (C) GLP-1R vs GIPR internalization dose response curves measured by high-content microscopy assay (HCA) in the same cells as above. […] (F) Quantification of surface GLP-1R vs GIPR levels in WT mouse islets using fluorescent agonist uptake data from (E); data corrected for binding affinity differences between both agonists; n = 4. (G) GLP-1R vs GIPR recycling dose response curves measured by high-content microscopy assay (HCA) in cells from (C); n = 5. […] Nuclei (DAPI), blue. Data are mean ± SEM, compared by paired or unpaired t tests, or two-way ANOVA with Sidak's post hoc test; *P < .05, **P < .01, ***P < .001; size bars: 10 µm.
(§2) Finally, using alternative fluorescent conjugates labeled with TMR, the amount of TMR-labeled agonist intracellular accumulation during the first 5 minutes of stimulation for each receptor correlated with the previously shown receptor internalization results in INS-1 832/3 SNAP-GLP-1R/SNAP-GIPR cell lines (Supplemental Fig. 3A and 3B) ([32]).

[2] = test system: endogenous GIPR in mouse islets; experiment: Confocal imaging of TMR agonist in mouse primary islets, GIPR; assay type: cell-based
Protocol: (§3) Nondiabetic mice of both sexes were used for islet isolation. Briefly, pancreata were infused via the common bile duct with RPMI-1640 medium containing 1 mg/mL collagenase from Clostridium histolyticum (Nordmark Biochemicals), dissected, and incubated in a water bath at 37 °C for 10 minutes. Islets were subsequently washed and purified using a Histopaque gradient (Histopaque-1119, 11191, Sigma-Aldrich, and Histopaque-1083, 10831, Sigma-Aldrich). Isolated islets were allowed to recover overnight at 37 °C in 5% CO2 in RPMI-1640 supplemented with 10% FBS and 1% penicillin/streptomycin. All procedures were carried out in accordance with the regulations of the UK Home Office Animals (Scientific Procedures) Act and the Imperial College London guidelines for animal care. Animal protocols were approved by the Home Office Animals in Science Regulation Unit (ASRU) under Project License number PP7151519 to Dr. A. Martinez-Sanchez.
as §1

SNAP-tagged human GIPR [3] = experiment: TMR agonist intracellular accumulation, INS-1 832/3 SNAP-GIPR; assay type: cell-based; details: 5 minutes poststimulation
Protocol: as §2

[4] = test system: endogenous GLP-1R in mouse islets; experiment: Confocal imaging of TMR agonist in mouse primary islets, GLP-1R; assay type: cell-based; details: 100 nM GLP-1-TMR; 15 minutes
Protocol: as §3
Figure 1. […] (C) GLP-1R vs GIPR internalization dose response curves measured by high-content microscopy assay (HCA) in the same cells as above. […] (F) Quantification of surface GLP-1R vs GIPR levels in WT mouse islets using fluorescent agonist uptake data from (E); data corrected for binding affinity differences between both agonists; n = 4. (G) GLP-1R vs GIPR recycling dose response curves measured by high-content microscopy assay (HCA) in cells from (C); n = 5. […]

T2D patients = details: dual GLP-1R/GIPR targeting peptides; cited from earlier work
Description: Incretin receptors, comprising the glucagon-like peptide-1 receptor (GLP-1R) and the glucose-dependent insulinotropic polypeptide receptor (GIPR), are key components of the glucoregulatory system due to their capacity to prevent postprandial hyperglycemia by amplifying insulin secretion from pancreatic beta cells in a glucose-dependent manner ([1]). Since their discovery and cloning in the 1990s ([2-4]), both receptors have been recognized for their glucose lowering potential. However, while the GLP-1R has successfully been exploited for the treatment of type 2 diabetes (T2D), with several pha ...

GLP-1R = details: tirzepatide; cited from earlier work
Description: In summary, we have described here significant differences in the trafficking and spatiotemporal signaling propensities of the 2 incretin receptors following their stimulation with native agonists in beta cells. While the GLP-1R is a rapidly internalizing receptor with increased propensity for β-arrestin 2 recruitment, endosomal localization and activity, and lysosomal degradation, the GIPR is associated with reduced coupling to G proteins and β-arrestin 2, as well as reduced internalization and endosomal activity, increased recycling, and an overall increase in beta cell signaling despite hig ...

Substance: GIP-FITC: fluorescein isothiocyanate (FITC) conjugate of GIP(1-42) (YAEGTFISDYSIAMDKIHQQDFVNWLLAQKGKKNDWKHNITQ; also: FITC conjugate, position not given here)
- SNAP-GIPR endocytosis (SNAP-tagged human GIPR [1]; 30 min, 100 nM GIP-FITC): only partial SNAP-GIPR endocytosis
- Intracellular GIP-FITC signal accumulation (SNAP-tagged human GIPR [1]; after 30 minutes of agonist stimulation): some intracellular GIP-FITC signal accumulation

Substance: GIP-TMR: tetramethylrhodamine (TMR) conjugate of GIP(1-42) (YAEGTFISDYSIAMDKIHQQDFVNWLLAQKGKKNDWKHNITQ; also: TMR conjugate, position not given here)
- GIP-TMR signal in islets at 100 nM ([2]; 100 nM, not shown): virtually undetectable
- Localization of TMR agonist in WT mouse primary islets ([2]; 1 µM GIP-TMR, 15 minutes): could be detected at the plasma membrane
- GIP-TMR uptake compared with GLP-1-TMR, dispersed mouse islet cells ([2]; dispersed mouse islet cells): markedly reduced
- TMR agonist signal in WT islets, GIP-TMR vs GLP-1-TMR ([2]; quantified in Fig. 1F, corrected for binding affinity differences, n = 4): significantly lower
- GIP-TMR signal at the plasma membrane, Gipr-/- (KO) islets ([2]; same concentration of GIP-TMR as WT (1 µM), specificity control): absent
- Intracellular accumulation of TMR-labeled agonist (SNAP-tagged human GIPR [3]): negligible

Substance: GLP-1-TMR: tetramethylrhodamine (TMR) conjugate of GLP-1(7-36)NH2 (HAEGTFTSDVSSYLEGQAAKEFIAWLVKGR-NH2; also: TMR conjugate, position not given here)
- Localization of TMR agonist in WT mouse primary islets [4]: predominantly localized in punctate structures reminiscent of endosomes

Substance: tirzepatide
- Efficacy compared with approved GLP-1R agonist monotherapies (T2D patients): enhanced efficacy
- Internalization and β-arrestin 2 recruitment at the GLP-1R (GLP-1R): reduced internalization and β-arrestin 2 recruitment at the GLP-1R

Source: article PMC10016038, “Enhanced Endosomal Signaling and Desensitization of GLP-1R vs GIPR in Pancreatic Beta Cells” (Endocrinology, 2023)
